Where two headings read alike, the source gives them in different places. Ends that are not written are not given here.
How the values were obtained:
[1] = test system: rabbit red blood cells (rRBCs); experiment: Hemolytic activity assay; format: cell-based
Protocol: The hemolytic activity of peptides was assayed on rabbit red blood cells (rRBCs)[43]. Briefly, 2% rRBCs (150 μL) were incubated in the presence of various peptide concentrations (50 μL) at 37 °C for 2 h. After centrifugation, the supernatants were collected for measuring absorbance at 545 nm. PBS and 0.01% Triton X-100 were used as the negative (no hemolysis) and positive (100% hemolysis) control, respectively. Triplicate tests were performed.

[2] = test system: human keratinocytes (HaCaT); experiment: HaCaT cell viability, CCK-8 assay; format: cell-based
Protocol: HaCaT (IM-H225) cells from Xiamen Immocell Biotechnology Co., Ltd were cultured in DMEM high glucose medium (4.5 g/L, Gibco, USA), supplemented with 10% fetal bovine serum (Gibco, USA), 100 U/mL of penicillin and 100 μg/mL of streptomycin in a 5% CO2 fully humidified environment at 37 °C.
Cell Counting Kit-8 (CCK-8; Biosharp, China) was used to assess the rate of cellular proliferation and quantify cell viability. In brief, HaCaT cells were seeded in 96-well plates with 100 μL of medium at a density of 1 × 10^4 cells per well. After incubation of cells overnight, peptides were added into the medium for another 24 h incubation. Then, 10 μL of CCK8 solution was applied to each well and incubated for 1 h at 37 °C. Finally, the absorbance values at 450 nm were determined using a microplate reader (SYNERGY-H1, BioTek, USA). Two columns of the plate were kept for negative control (medium only) and growth control (medium with HaCaT cell). All experiments were conducted in triplicate.

C. acnes (BNCC 336649) = conditions: for Concentration with antimicrobial activity >50%: C. acnes; for Concentration with antimicrobial activity >50% / Category of in vitro test antimicrobial activity against C. acnes: supplementary Table 5; for Antimicrobial activity > 50% against C. acnes: broth microdilution, 48 h, OD 630 nm
Protocol: The strain of C. acnes (BNCC 336649) was cultured in Wilkins-Chalgren Anaerobe Broth (QingDao RiShui Bio-technologies, 11071) at 37 °C under an anaerobic atmosphere performed by a Labiophy HL-B automatic hypoxic workstation (Dalian, Liaoning Province, Labiophy HL-B), inflated with a gas mix of 15% carbon dioxide, 83% nitrogen, and 2% hydrogen.
Logarithmic phase growth bacteria were used for antimicrobial testing.
To determine the MIC values, the broth microdilution method was used. […] Briefly, peptide samples were prepared as a stock solution in water and then diluted. 180 μL of the bacterial suspension (10^7 CFU/mL) and 20 μL of the tested sample were added together into 96-Well Deep Well Plates and incubated 24 h for E. coli and S. aureus or 48 h for C. acnes and C. albicans. For each test, two columns of the plate were kept for sterility control (broth only) and growth control (broth with bacterial inoculums, no antibiotics). The optical density of cultures was measured at 630 nm by a microplate reader (SYNERGY-H1, BioTek, USA) to estimate bacterial growth. All experiments were conducted in triplicate. We used ciprofloxacin (CPFX) as the antibiotic control for antimicrobial testing.

AKRIVKLIKNFFRKL-NH2 [AMP-25]
Hemolysis Index [1]: 60
Cytotoxic Index [2]: 20
HaCaT cell tolerance up to [2]: 80 µg/mL

FKRLKKLFKKIWNWK [HPA3NT3, reference compound]
Hemolysis Index ([1]; ratio of EC90 (rabbit red blood cells) to MIC of C. acnes): 32
Cytotoxic Index ([2]; ratio of EC90 (HaCaT) to MIC of C. acnes): 8

GIFKKITGKLFKWIK [AMP-5]
Hemolysis Index [1]: 30
Cytotoxic Index [2]: 10
HaCaT cell tolerance up to [2]: 80 µg/mL

GVFDWLKKLGKKLAG [AMP-14, AI designed peptide]
Concentration with antimicrobial activity >50% (C. acnes (BNCC 336649)): 12.5 µg/mL
Antimicrobial activity > 50% against C. acnes (C. acnes (BNCC 336649); at 25 µg/mL): Inhibit (A peptide was deemed to have antimicrobial activity if C. acnes growth was inhibited by more than 50% at a given concentration)
Antimicrobial activity > 50% against C. acnes (C. acnes (BNCC 336649); at 50 µg/mL): Inhibit (A peptide was deemed to have antimicrobial activity if C. acnes growth was inhibited by more than 50% at a given concentration)
Antimicrobial activity > 50% against C. acnes (C. acnes (BNCC 336649); at 100 µg/mL): Inhibit (A peptide was deemed to have antimicrobial activity if C. acnes growth was inhibited by more than 50% at a given concentration)
Category of in vitro test antimicrobial activity against C. acnes (C. acnes (BNCC 336649)): Strong AMP
HaCaT cell tolerance up to [2]: 80 µg/mL

GWAKRLATRLAKAIL-NH2 [AMP-27]
Hemolysis Index [1]: 6.4
Cytotoxic Index [2]: 12.8
HaCaT cell tolerance up to [2]: 320 µg/mL

HFLGVVAKLVSKLF [AMP-38]
Hemolysis Index [1]: 16
Cytotoxic Index [2]: 10
HaCaT cell tolerance up to [2]: 80 µg/mL

KILGKLLKWASKIW [AMP-31]
Hemolysis Index [1]: 20
Cytotoxic Index [2]: 8

KKIFKRIVKIIKRLL [AMP-29]
Hemolysis Index [1]: 32
Cytotoxic Index [2]: 16

KKLACRLWKWLAKKA [AMP-21, AI designed peptide]
Concentration with antimicrobial activity >50% (C. acnes (BNCC 336649)): 12.5 µg/mL
Antimicrobial activity > 50% against C. acnes (C. acnes (BNCC 336649); at 25 µg/mL): Inhibit (A peptide was deemed to have antimicrobial activity if C. acnes growth was inhibited by more than 50% at a given concentration)
Antimicrobial activity > 50% against C. acnes (C. acnes (BNCC 336649); at 50 µg/mL): Inhibit (A peptide was deemed to have antimicrobial activity if C. acnes growth was inhibited by more than 50% at a given concentration)
Antimicrobial activity > 50% against C. acnes (C. acnes (BNCC 336649); at 100 µg/mL): Inhibit (A peptide was deemed to have antimicrobial activity if C. acnes growth was inhibited by more than 50% at a given concentration)
Category of in vitro test antimicrobial activity against C. acnes (C. acnes (BNCC 336649)): Strong AMP
HaCaT cell tolerance up to [2]: 80 µg/mL

KKWRKVLKLIKRLVG-NH2 [AMP-12]
Hemolysis Index [1]: 40
Cytotoxic Index [2]: 16

KRIVHRLLKKLHSLF [AMP-9]
Hemolysis Index [1]: 30
Cytotoxic Index [2]: 20
HaCaT cell tolerance up to [2]: 160 µg/mL

LSKWLKKLGKLLAG [AMP-33]
Hemolysis Index [1]: 20
Cytotoxic Index [2]: 20
HaCaT cell tolerance up to [2]: 80 µg/mL

WLSKTAKKLWNVFKS [AMP-15]
Concentration with antimicrobial activity >50% (C. acnes (BNCC 336649)): 25 µg/mL
Antimicrobial activity > 50% against C. acnes (C. acnes (BNCC 336649); at 25 µg/mL): Inhibit (A peptide was deemed to have antimicrobial activity if C. acnes growth was inhibited by more than 50% at a given concentration)
Antimicrobial activity > 50% against C. acnes (C. acnes (BNCC 336649); at 50 µg/mL): Inhibit (A peptide was deemed to have antimicrobial activity if C. acnes growth was inhibited by more than 50% at a given concentration)
Antimicrobial activity > 50% against C. acnes (C. acnes (BNCC 336649); at 100 µg/mL): Inhibit (A peptide was deemed to have antimicrobial activity if C. acnes growth was inhibited by more than 50% at a given concentration)
Category of in vitro test antimicrobial activity against C. acnes (C. acnes (BNCC 336649)): Medium AMP

— paper PMC10894229, “Novel antimicrobial peptides against Cutibacterium acnes designed by deep learning” (Scientific Reports, 2024)
